In patent publication US6429173B1, “Defloration agent for apple trees” (Agro-Kanesho Co., Ltd., priority 1998, dated 2002):

System: apple tree (variety: Fuji)
Test: Defloration effect (percentage of remaining fruits) after spraying a flowering apple branch
Type: in vivo
Conditions: Low temperature condition (14.6° C.); ethephon alone 100 ppm, compound (I) 0 ppm; 30 days after spraying
Description: The ME preparation and ethephon preparation produced as described above were mixed together to obtain an application solution.
A branch having about 50 bunches of flowers was selected from a 13-year old apple tree (variety: Fuji). The application solution produced as described above was sprayed over the whole branch with a knapsack sprayer on the day after the full blossom of the central flower. The evaluation results are shown by percentages of remaining fruits (both central and lateral fruits) calculated by the formula shown below. The phytotoxicity was determined on the basis of defoliation, discolored leaves, state of leaves and also state of russet, and the results were classified into the following 5 ranks (− to +++).
Percentage of remaining fruits ≈ number of normal fruits on the test day/number of flowers on the treatment day × 100

O=P(O)(O)CCCl [Ethephon, 2-chloroethylphosphonic acid] was tested, and the “Fruit setting rate (%) Central fruit” value was 83% and the “Fruit setting rate (%) Lateral fruit” value was 42%.
